Like-named read-outs stand apart in the source and are kept apart here.
Legend:
[1] = system: pcDNA3.1(+) DNA; assay: DNA binding assay (agarose gel electrophoresis); settings: 10, 100 or 200 μmol/L with 1 μg pcDNA3.1(+), 37 °C, 3 h; 1% agarose gel
Procedure: 10, 100 or 200 μmol/L compounds were incubated with 1 μg pcDNA3.1(+) at 37 °C for 3 h. The mixtures were then subjected to electrophoresis on a 1% agarose gel, pre-stained with 0.5 μg/ml ethidium bromide, at 60 V for 40 min. Doxorubicin (DOX) was used as a positive control.

[2] = system: KB cells; assay: MTT cytotoxicity assay, KB cells; type: cell-based; settings: Homo sapiens, 72 h treatment, KB oral epidermoid carcinoma cells
Procedure: (§1) The cell lines were cultured in DMEM or RPMI 1640 containing 10% fetal bovine serum at 37 °C in the presence of 5% CO2. The cell lines were the oral epidermoid carcinoma cell lines KB and its vincristine-selected ABCB1-overexpressing KBv200 [10]; the breast carcinoma cell lines MCF-7 and its doxorubicin-selected ABCB1-overexpressing MCF-7/adr; the lung carcinoma cell line A549 and normal liver cell line LO2.
(§2) The MTT assay was used to evaluate the cytotoxicity of a number of compounds previously isolated from mangrove-derived fungi as described. Briefly, 3–4 × 10^3 cells were incubated in 96-well plates and allowed to attach overnight before compounds at full range concentrations were added. The concentrations were chosen so that the highest concentration killed most of the cells and the lowest killed none of the cells. After 72 h treatment, 0.5 mg/ml MTT was added to each well for an additional 4 h. Subsequently, the supernatant was removed, and the purple MTT-formazan crystals were dissolved by DMSO. Finally, absorbance was recorded at 540 nm with 655 nm as a reference filter using a Model 550 Microplate Reader (Bio-Rad, USA). Experiments were performed at least three times. The standard chemotherapeutic agent doxorubicin was used as a positive control in MTT assay and normal liver cell line LO2 was used to show whether cytotoxic activity was tumor-specific. The concentrations required to inhibit growth by 50% (IC50) were calculated from survival curves using the Bliss method.

[3] = system: MCF-7 cells; assay: MTT cytotoxicity assay, MCF-7 cells; type: cell-based; settings: Homo sapiens, MCF7, 72 h treatment, MCF-7 breast carcinoma cells
Procedure: as §1, §2

[4] = system: A549 cells; assay: MTT cytotoxicity assay, A549 cells; type: cell-based; settings: Homo sapiens, 72 h treatment, A549 lung carcinoma cells
Procedure: as §1, §2

[5] = system: KBv200 cells; assay: MTT cytotoxicity assay, KBv200 cells; type: cell-based; settings: Homo sapiens, 72 h treatment, vincristine-selected ABCB1-overexpressing KBv200 cells
Procedure: as §1, §2

[6] = system: MCF-7/adr cells; assay: MTT cytotoxicity assay, MCF-7/adr cells; type: cell-based; settings: Homo sapiens, NCI/ADR-RES, 72 h treatment, doxorubicin-selected ABCB1-overexpressing MCF-7/adr cells
Procedure: as §1, §2

[7] = system: KB, KBv200, MCF-7, MCF-7/adr, and A549 cells; assay: MTT anticancer screen, cancer cell panel; type: cell-based, human; settings: for IC50: Homo sapiens, MTT; for IC50 values in MDR cells compared with parental sensitive cells: KBv200, MCF-7/adr versus KB, MCF-7
Procedure: as §1, §2

[8] = system: normal liver LO2 cells; assay: MTT cytotoxicity assay, normal liver LO2 cells; type: cell-based; settings: for IC50: Homo sapiens, L02, 72 h treatment; for IC50 / growth inhibitory activity in LO2 cells (in words): normal liver LO2 cells
Procedure: as §1, §2

[9] = KB, KBv200, MCF-7, MCF-7/adr, and A549 cells, read-out: IC50 values (potent cytotoxic activity)
[10] = cancer cells, cell lines not given, read-out: IC50 (cytotoxic activity)

Row | SMILES | DNA intercalation / binding to DNA [1] | IC50 [2] [µM] | IC50 [3] [µM] | IC50 [4] [µM] | IC50 [5] [µM] | IC50 [6] [µM] | IC50 [7, 9] [µM] | IC50 [8] [µM] | sensitivity of cancer cells compared with normal liver LO2 cells ([8]; cancer cells versus LO2 cells) | growth inhibitory activity in LO2 cells (in words) [8] | IC50 values in MDR cells compared with parental sensitive cells [7] | IC50 [7, 10] [µM]
1 | Cc1c(CO)cc([N+](=O)[O-])cc1CO [Compound 1] | none of the compounds investigated here showed binding to DNA | 1.57 ± 0.08 | 1.38 ± 0.07 | 2.71 ± 0.15 | 2.67 ± 0.17 | 2.34 ± 0.11 | < 50 | 6.59 ± 0.44 | more sensitive |  |  | 
2 | Cc1ccc([N+](=O)[O-])cc1CO [Compound 2] |  | > 50 | > 50 | > 50 | > 50 | > 50 |  | > 50 |  |  |  | 
3 | Cc1c(CCl)cc([N+](=O)[O-])cc1CCl [Compound 3] |  | > 50 | > 50 | > 50 | > 50 | > 50 |  | > 50 |  |  |  | 
4 | Cc1c(O)cc(O)c(C(=O)O)c1C [Compound 4] | none of the compounds investigated here showed binding to DNA | 1.15 ± 0.06 | 11.7 ± 0.86 | 17.1 ± 1.03 | 6.74 ± 0.38 | 35.7 ± 2.08 | < 50 | 16.5 ± 1.22 |  | exhibited growth inhibitory activity in LO2 cells |  | 
5 | Cc1cccc(O)c1C(=O)O [Compound 5] |  | > 50 | > 50 | > 50 | > 50 | > 50 |  | > 50 |  |  |  | 
6 | C/C=C/C(=O)c1cc(O)c(O)cc1O [Compound 6] |  | > 50 | > 50 | > 50 | > 50 | > 50 |  | > 50 |  |  |  | 
7 | O=c1c2c(O)ccc(O)c2oc2c3c(cc(O)c12)OC1OCCC31 (stereo not shown) [Compound 7] |  | 0.03 ± 0.001 | 0.17 ± 0.01 | 16.5 ± 0.88 | 9.08 ± 0.65 | 31.6 ± 1.83 | < 50 | 47.4 ± 2.04 |  |  | much higher IC50 values | 
8 | O=c1c2ccccc2oc2c3c(cc(O)c12)OC1OCCC31 (stereo not shown) [Compound 8] |  | 0.71 ± 0.03 | 2.53 ± 0.14 | > 50 | 17.2 ± 0.96 | 9.37 ± 0.42 | < 50 | > 50 |  |  |  | 
9 | COc1c2c(cc3oc4cccc(O)c4c(=O)c13)C1C=COC1O2 (stereo not shown) [Compound 9] |  | 0.94 ± 0.01 | 1.43 ± 0.09 | > 50 | 48 ± 3.41 | 31.6 ± 1.36 | < 50 | > 50 |  |  | much higher IC50 values | 
10 | C=C/C=C/COc1c(-c2ccc3c(c2OC/C=C/C=C)C(=O)C2=C(O)CC(C)C(O)C2(C(=O)OC)O3)ccc2c1C(=O)C1=C(O)CC(C)C(O)C1(C(=O)OC)O2 (stereo not shown) [Compound 10] |  | > 50 | > 50 | > 50 | > 50 | > 50 |  | > 50 |  |  |  | 
11 | CCOC(=O)COc1cc(C)cc2c1C(=O)c1c(O)cccc1C2=O [Compound 11] | none of the compounds investigated here showed binding to DNA | 5.89 ± 0.37 | 13.2 ± 0.84 | 21.3 ± 1.6 | 18.9 ± 1.2 | 35.3 ± 2.77 | < 50 | 28.9 ± 1.46 |  | exhibited growth inhibitory activity in LO2 cells |  | 
12 | CCOC(=O)COc1cccc2c1C(=O)c1c(OCC(=O)OCC)cc(C)cc1C2=O [Compound 12] |  | > 50 | > 50 | > 50 | > 50 | > 50 |  | > 50 |  |  |  | 
13 | C=C/C=C/COc1cccc2c1C(=O)c1c(O)cccc1C2=O [Compound 13] | none of the compounds investigated here showed binding to DNA | 21 ± 1.35 | 16.3 ± 0.71 | 31.2 ± 2.02 | > 50 | > 50 | < 50 | > 50 |  |  | much higher IC50 values | 
14 | C#CCOc1cc(C)cc2c1C(=O)c1c(O)cccc1C2=O [Compound 14] | none of the compounds investigated here showed binding to DNA | 11.9 ± 0.69 | 35.2 ± 1.87 | 23.5 ± 1.32 | > 50 | > 50 | < 50 | 37.5 ± 1.64 |  |  | much higher IC50 values | 
15 | Cc1cc(OCc2ccccc2)c2c(c1)C(=O)c1cccc(O)c1C2=O [Compound 15] |  | > 50 | > 50 | > 50 | > 50 | > 50 |  | > 50 |  |  |  | 
16 | O=C1c2cccc(OCc3ccccc3)c2C(=O)c2c(OCc3ccccc3)cccc21 [Compound 16] |  | > 50 | > 50 | > 50 | > 50 | > 50 |  | > 50 |  |  |  | 
17 | COc1cc(OC)c2c(c1)C(=O)c1cc3c(c(O)c1C2=O)C1CCOC1O3 (stereo not shown) [Compound 17] |  | > 50 | > 50 | > 50 | > 50 | > 50 |  | > 50 |  |  |  | 
18 | Cc1ccc2c(c1)C(=O)c1ccc(-c3ccc4c(c3)C(=O)c3cc(C)cc(O)c3C4=O)c(O)c1C2=O [Compound 19] |  | > 50 | > 50 | > 50 | > 50 | > 50 |  | > 50 |  |  |  | 
19 | COc1cc(O)c2c(c1O)C(O)C1CC(C)(O)C(O)C(O)C1C2=O (stereo not shown) [Compound 20] |  | > 50 | > 50 | > 50 | > 50 | > 50 |  | > 50 |  |  |  | 
20 | COc1cc(O)c2c(c1O)C(O)C1CC(C)(O)C(O)CC1C2=O (stereo not shown) [Compound 21] |  | > 50 | > 50 | > 50 | > 50 | > 50 |  | > 50 |  |  |  | 
21 | COc1cc(O)c2c(c1O)C(O)C1CC3(C)OC3CC1C2=O (stereo not shown) [Compound 22] |  | > 50 | > 50 | > 50 | > 50 | > 50 |  | > 50 |  |  |  | 
22 | COc1cc(O)c2c(c1O)C(=O)C1CC(C)(O)C(O)CC1C2O (stereo not shown) [Compound 23] |  | > 50 | > 50 | > 50 | > 50 | > 50 |  | > 50 |  |  |  | 
23 | COc1cc(O)c2c(c1O)C(=O)C1CC(C)(O)C(O)C(O)C1C2O (stereo not shown) [Compound 24] |  | > 50 | > 50 | > 50 | > 50 | > 50 |  | > 50 |  |  |  | 
24 | COc1cc(O)c2c(c1O)C(=O)C1CC3(C)OC3CC1C2O (stereo not shown) [Compound 25] |  | > 50 | > 50 | > 50 | > 50 | > 50 |  | > 50 |  |  |  | 
25 | CC1OC(O[C@@H]2C(=O)c3c(O)cccc3OC2c2ccc(O)cc2)C(O)C(O)C1O (stereo partly shown) [Compound 79] |  | > 50 | > 50 | > 50 | > 50 | > 50 |  | > 50 |  |  |  | > 50
26 | CC1OC(O[C@H]2C(=O)c3c(O)cccc3OC2c2ccc(O)cc2)C(O)C(O)C1O (stereo partly shown) [Compound 80] |  | > 50 | > 50 | > 50 | > 50 | > 50 |  | > 50 |  |  |  | > 50
27 | CCCCC/C=C\CC(O)/C=C/C=C\C/C=C\CCCC(=O)OC (stereo not shown) [Compound 82] |  | > 50 | > 50 | > 50 | > 50 | > 50 |  | > 50 |  |  |  | 
28 | CC(=O)/C=C/C=C/C=C/C(=O)CC(=O)O [Compound 84] |  | > 50 | > 50 | > 50 | > 50 | > 50 |  | > 50 |  |  |  | 
29 | COC(=O)/C=C/C=C/C=C/C=C(C)/C=C/C=C(\C)C(=O)O [Compound 85] |  | > 50 | > 50 | > 50 | > 50 | > 50 |  | > 50 |  |  |  | 

— PMC2866477, “Anticancer Effect and Structure-Activity Analysis of Marine Products Isolated from Metabolites of Mangrove Fungi in the South China Sea” (Marine Drugs, 2010)
